In patent US20120328569A1, “INHIBITORS OF HEPATITIS C VIRUS NS5B POLYMERASE” (priority 2010, published 2012):

Each compound was assayed on HCV genotype 1b replicon (assay: HCV replicon assay, cell ELISA with antibody to replicon-encoded NS3/4A (genotype 1b replicon)). Conditions: Hepatitis C virus, 96 h, read-out: 1b IC50(nM), HCV genotype 1b replicon; 96 hours incubation; NS3/4A cell ELISA.
Assay type: cell-based, hepatitis C virus
Procedure, shortened: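 Replicon-harbouring cells carrying neomycin phosphotransferase were incubated 96 h with a compound dilution series without G418. Replication was quantified indirectly by a cell ELISA detecting replicon-encoded NS3/4A. IC50 values were calculated relative to DMSO control with a four-parameter fit.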

Which IC50 does the source give for `CNC(=O)c1c(-c2ccc(F)cc2)oc2cc(N(C)S(C)(=O)=O)c(-c3ccc(OC)c(-c4nc5cc(C(N)=O)ccc5o4)c3)cc12` [Example 632] here?
The IC50 was 4.61 nM.

`CNC(=O)c1c(-c2ccc(F)cc2)oc2cc(N(C3COC3)S(C)(=O)=O)c(-c3ccc(OC)c(-c4nc5c(F)cc(F)cc5o4)c3)cc12` [Example 721] was tested. Which IC50 did it give?
Its IC50 is 4.94 nM.

`CNC(=O)c1c(-c2ccc(F)cc2)oc2cc(N(C)S(C)(=O)=O)c(-c3ccc(O)c(-c4nc5c(F)cccc5o4)c3)cc12` [Example 606, 5-(3(4-fluorobenzo[d]oxazol-2-yl)-4-hydroxyphenyl)-2(4-fluorophenyl)-N-methyl-6-(N-methylmethylsulfonamido)benzofuran-3-carboxamide] was tested. Which IC50 did it give?
Its IC50 is 9.32 nM.

Which IC50 does the source give for `CN(c1cc2oc(-c3ccc(F)cc3)c(C(=O)Nc3cccnc3)c2cc1-c1cccc(-c2cc3ccccc3[nH]2)c1)S(C)(=O)=O` [Example 851, 5-(3-(1H-indol-2-yl)phenyl)-2-(4-fluorophenyl)-6-(N-methylmethylsulfonamido)-N-(pyridin-3-yl)benzofuran-3-carboxamide] here?
The IC50 was 350 nM.

Same assay, conditions: Hepatitis C virus, 96 h, read-out: Replicon 1b IC50 (nM), HCV genotype 1b replicon cells, 96 hours incubation, NS3/4A ELISA readout

Which IC50 does the source give for `CNC(=O)c1c(-c2ccc(F)cc2)oc2cc(N(C)S(C)(=O)=O)c(-c3cccc(-c4nc5ncccc5o4)c3)cc12` [Example 155, 2-(4-fluorophenyl)-N-methyl-6-(N-methylmethylsulfonamido)-5-(3-(oxazolo[4,5-b]pyridin-2-yl)phenyl)benzofuran-3-carboxamide] here?
The IC50 was 1.1 nM.

For `C#CCN(c1cc2oc(-c3ccc(F)cc3)c(C(=O)NC)c2cc1-c1ccccc1)S(C)(=O)=O` [Example 34, 2-(4-fluorophenyl)-N-methyl-6-[(methylsulfonyl) (prop-2-yn-1-yl)amino]-5-phenyl-1-benzofuran-3-carboxamide], which IC50 is on record?
The IC50 was 189 nM.

With `CNC(=O)c1c(-c2ccc(F)cc2)oc2cc(N(C)S(C)(=O)=O)c(-c3cccc(-c4nc5cc(NS(=O)(=O)c6ccccc6)ccc5o4)c3)cc12` [Example 286] as the compound, how does the IC50 read?
The IC50 was 5.8 nM.

With `CNC(=O)c1c(-c2ccc(F)cc2)oc2cc(N(CCNCc3ccccc3)S(C)(=O)=O)c(-c3ccccc3)cc12` [Example 123, 6-{[2-(benzylamino)ethyl](methylsulfonyl)amino}-2-(4-fluorophenyl)-N-methyl-5-phenyl-1-benzofuran-3-carboxamide] as the compound, how does the IC50 read?
Its IC50 is 111 nM.

With `CNC(=O)c1c(-c2ccc(F)cc2)oc2cc(N(C)S(C)(=O)=O)c(-c3cc(Cl)cc(-c4nc5ncccc5o4)c3)cc12` [Example 203] as the compound, how does the IC50 read?
Its IC50 is 2.4 nM.

`CNC(=O)c1c(-c2ccc(F)cc2)oc2cc(N(C)S(C)(=O)=O)c(-c3ccc(F)cc3)cc12` [Example 87, 2,5-bis(4-fluorophenyl)-N-methyl-6-[methyl (methylsulfonyl)amino]-1-benzofuran-3-carboxamide] was tested. Which IC50 did it give?
Its IC50 is 39 nM.

How did the IC50 turn out when `CNC(=O)c1c(-c2ccc(F)cc2)oc2cc(N(C)S(C)(=O)=O)c(-c3ccc(Cl)c(-c4nc5cccnc5o4)c3)cc12` [Example 228] was run?
The IC50 was 3.2 nM.

How did the IC50 turn out when `CNC(=O)c1c(-c2ccc(F)cc2)oc2cc(N(C)S(C)(=O)=O)c(-c3cccc(F)c3)cc12` [Example 86, 5-(3-fluorophenyl)-2-(4-fluorophenyl)-N-methyl-6-[methyl (methylsulfonyl)amino]-1-benzofuran-3-carboxamide] was run?
The IC50 was 28 nM.

With `CNC(=O)c1c(-c2ccc(F)cc2)oc2cc(N(C)S(C)(=O)=O)c(-c3ccc(F)c(-c4nc5cccnc5s4)c3)cc12` [Example 246] as the compound, how does the IC50 read?
Its IC50 is 3.6 nM.

With `CNC(=O)c1c(-c2ccc(F)cc2)oc2cc(N(C)S(C)(=O)=O)c(-c3cccc(-c4nc5ccc(NC(C)=O)cc5o4)c3)cc12` [Example 282] as the compound, how does the IC50 read?
The IC50 was 2.3 nM.

For `CNC(=O)c1c(-c2ccc(F)cc2)oc2cc(N(C)S(C)(=O)=O)c(-c3cccc(-c4ccc5cccnc5c4)c3)cc12` [Example 353], which IC50 is on record?
The IC50 was 4.2 nM.

`CNC(=O)c1c(-c2ccc(F)cc2)oc2cc(N(C)S(C)(=O)=O)c(-c3cc(F)c(OC)c(-c4nc5ncccc5o4)c3)cc12` [Example 232] was tested. Which IC50 did it give?
The IC50 was 2.4 nM.

How did the IC50 turn out when `CNC(=O)c1c(-c2ccc(F)cc2)oc2cc(N(C)C(C)c3ccccc3)c(-c3ccccc3)cc12` (centres unmarked) [Example 71, 2-(4-fluorophenyl)-N-methyl-6-[methyl(1-phenylethyl)amino]-5-phenyl-1-benzofuran-3-carboxamide] was run?
Its IC50 is > 2500 nM.
